Reference: patent US9540366B2, “Ring-fused heterocyclic compound” (Kyowa Hakko Kirin Co., Ltd., priority 2012, dated 2017)
Where two headings read alike, the source gives them in different places.

Biological target: T1, human Cav3.2 T-type Ca2+ channel (Homo sapiens, UniProt O95180)
T1 construct: expressed in transfected cells; host or cells: KJMGER8 cells (Namalwa cell-derived cell line)
Assay: Inhibitory effect for intracellular calcium response via Cav3.2 T-type Ca2+ channels (FLIPR Calcium 3 Assay Kit)
Format: cell-based

[1] = human Cav3.2-expressing KJMGER8 cells (Namalwa-derived), calcium response induced by 5 mmol/L CaCl2, 3 μmol/L mibefradil as reference, read-out: IC50 for the human Cav3.2 T-type Ca2+ current

T1 sequence (O95180 whole entry): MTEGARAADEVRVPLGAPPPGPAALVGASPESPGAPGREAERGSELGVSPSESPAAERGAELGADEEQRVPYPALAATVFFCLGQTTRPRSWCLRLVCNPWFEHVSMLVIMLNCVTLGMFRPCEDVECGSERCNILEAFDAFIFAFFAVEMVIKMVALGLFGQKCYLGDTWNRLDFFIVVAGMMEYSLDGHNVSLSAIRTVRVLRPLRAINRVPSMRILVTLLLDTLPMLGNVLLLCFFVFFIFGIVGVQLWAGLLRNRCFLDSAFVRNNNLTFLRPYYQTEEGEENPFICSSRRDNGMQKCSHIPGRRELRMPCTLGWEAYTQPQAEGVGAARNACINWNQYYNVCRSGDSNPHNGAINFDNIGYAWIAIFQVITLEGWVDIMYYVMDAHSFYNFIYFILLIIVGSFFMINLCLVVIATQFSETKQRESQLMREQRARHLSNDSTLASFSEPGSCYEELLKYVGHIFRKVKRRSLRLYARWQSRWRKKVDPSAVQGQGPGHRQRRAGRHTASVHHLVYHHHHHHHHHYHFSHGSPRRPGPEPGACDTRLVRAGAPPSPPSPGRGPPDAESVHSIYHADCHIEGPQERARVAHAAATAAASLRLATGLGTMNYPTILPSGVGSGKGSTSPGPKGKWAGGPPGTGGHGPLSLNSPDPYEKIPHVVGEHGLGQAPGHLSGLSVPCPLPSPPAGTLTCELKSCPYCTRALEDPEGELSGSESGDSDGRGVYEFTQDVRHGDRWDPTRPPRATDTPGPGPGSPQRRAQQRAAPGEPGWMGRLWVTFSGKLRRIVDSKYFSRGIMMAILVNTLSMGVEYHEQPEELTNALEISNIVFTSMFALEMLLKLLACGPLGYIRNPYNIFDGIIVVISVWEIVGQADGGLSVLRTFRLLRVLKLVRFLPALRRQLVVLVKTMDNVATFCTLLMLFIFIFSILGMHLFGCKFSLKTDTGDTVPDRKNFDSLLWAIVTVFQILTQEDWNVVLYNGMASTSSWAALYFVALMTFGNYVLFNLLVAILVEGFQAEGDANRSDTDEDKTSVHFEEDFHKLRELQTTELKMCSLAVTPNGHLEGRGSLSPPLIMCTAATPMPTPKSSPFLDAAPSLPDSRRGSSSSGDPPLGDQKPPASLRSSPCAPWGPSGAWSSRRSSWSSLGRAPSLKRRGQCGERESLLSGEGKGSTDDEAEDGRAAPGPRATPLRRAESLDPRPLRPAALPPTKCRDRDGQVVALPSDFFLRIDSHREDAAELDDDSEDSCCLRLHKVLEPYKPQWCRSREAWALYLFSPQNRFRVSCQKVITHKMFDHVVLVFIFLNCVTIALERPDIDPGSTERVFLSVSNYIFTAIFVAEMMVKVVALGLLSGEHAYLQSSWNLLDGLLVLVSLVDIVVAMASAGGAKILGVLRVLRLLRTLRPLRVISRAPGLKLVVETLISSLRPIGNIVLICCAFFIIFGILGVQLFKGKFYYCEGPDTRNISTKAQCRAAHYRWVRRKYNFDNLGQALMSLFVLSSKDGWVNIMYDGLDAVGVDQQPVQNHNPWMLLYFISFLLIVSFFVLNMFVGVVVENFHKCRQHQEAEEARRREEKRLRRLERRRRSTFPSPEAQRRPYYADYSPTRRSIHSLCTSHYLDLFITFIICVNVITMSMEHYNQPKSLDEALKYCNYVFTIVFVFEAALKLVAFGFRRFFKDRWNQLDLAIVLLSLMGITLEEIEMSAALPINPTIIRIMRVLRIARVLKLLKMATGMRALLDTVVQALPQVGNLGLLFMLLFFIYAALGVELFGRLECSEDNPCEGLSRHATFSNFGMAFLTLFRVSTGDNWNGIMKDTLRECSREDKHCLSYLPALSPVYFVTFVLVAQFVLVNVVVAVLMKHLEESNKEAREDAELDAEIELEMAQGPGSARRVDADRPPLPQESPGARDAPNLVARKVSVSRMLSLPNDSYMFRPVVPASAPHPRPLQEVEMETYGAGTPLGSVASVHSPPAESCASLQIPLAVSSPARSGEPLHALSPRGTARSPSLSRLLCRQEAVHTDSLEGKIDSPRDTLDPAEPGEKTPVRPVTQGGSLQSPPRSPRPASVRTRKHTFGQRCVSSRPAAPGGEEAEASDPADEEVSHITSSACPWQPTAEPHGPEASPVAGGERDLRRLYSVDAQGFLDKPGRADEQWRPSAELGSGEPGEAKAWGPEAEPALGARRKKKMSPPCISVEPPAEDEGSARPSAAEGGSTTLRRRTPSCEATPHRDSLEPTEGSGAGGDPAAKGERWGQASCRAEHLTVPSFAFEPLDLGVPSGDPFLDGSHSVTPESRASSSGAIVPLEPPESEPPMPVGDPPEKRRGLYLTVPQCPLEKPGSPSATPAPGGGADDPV

SMILES	IC50	IC50 [1]
O=C(NC1CC(CO)(CO)C1)c1cc(Cl)n2c(CC3CCC(F)(F)CC3)c(C(F)(F)F)nc2c1 [Compound 95, N-[3,3-Bis(hydroxymethyl)cyclobutyl]-5-chloro-3-[(4,4-difluorocyclohexyl)methyl]-2-(trifluoromethyl)imidazo[1,2-a]pyridine-7-carboxamide]	≤ 100 nM	–
O=C(NCc1ccncc1)c1cc(Cl)n2c(CC3CCC(F)(F)CC3)c(C(F)(F)F)nc2c1 [Compound 97]	≤ 100 nM	–
O=C(NCc1ccccc1)c1cc(Cl)n2c(CC3CCC(F)(F)CC3)c(C(F)(F)F)nc2c1 [Compound 98, N-Benzyl-5-chloro-3-[(4,4-difluorocyclohexyl)methyl]-2-(trifluoromethyl)imidazo[1,2-a]pyridine-7-carboxamide]	≤ 100 nM	–
O=C(NCCN1CCCCC1)c1cc(Cl)n2c(CC3CCC(F)(F)CC3)c(C(F)(F)F)nc2c1 [Compound 99, 5-Chloro-3-[(4,4-difluorocyclohexyl)methyl]-N-[2-(piperidin-1-yl)ethyl]-2-(trifluoromethyl)imidazo[1,2-a]pyridine-7-carboxamide]	≤ 100 nM	–
O=C(NCCCn1ccnc1)c1cc(Cl)n2c(CC3CCC(F)(F)CC3)c(C(F)(F)F)nc2c1 [Compound 100, N-[3-(1H-Imidazol-1-yl)propyl]-5-chloro-3-[(4,4-difluorocyclohexyl)methyl]-2-(trifluoromethyl)imidazo[1,2-a]pyridine-7-carboxamide]	≤ 100 nM	–
O=C(NCc1cccc(O)c1)c1cc(Cl)n2c(CC3CCC(F)(F)CC3)c(C(F)(F)F)nc2c1 [Compound 103, 5-Chloro-3-[(4,4-difluorocyclohexyl)methyl]-N-(3-hydroxybenzyl)-2-(trifluoromethyl)imidazo[1,2-a]pyridine-7-carboxamide]	–	≤ 100 nM
O=C(NCCc1c[nH]cn1)c1cc(Cl)n2c(CC3CCC(F)(F)CC3)c(C(F)(F)F)nc2c1 [Compound 104]	≤ 100 nM	–
O=C(NCc1ccccn1)c1cc(Cl)n2c(CC3CCC(F)(F)CC3)c(C(F)(F)F)nc2c1 [Compound 106]	≤ 100 nM	–
O=C(NCCN(CCO)CCO)c1cc(Cl)n2c(CC3CCC(F)(F)CC3)c(C(F)(F)F)nc2c1 [Compound 109, N-{2-[Bis(2-hydroxyethyl)amino]ethyl}-5-chloro-3-[(4,4-difluorocyclohexyl)methyl]-2-(trifluoromethyl)imidazo[1,2-a]pyridine-7-carboxamide]	–	≤ 100 nM
CCOC(=O)CNC(=O)c1cc(Cl)n2c(CC3CCC(F)(F)CC3)c(C(F)(F)F)nc2c1 [Compound 110, Ethyl 2-{5-chloro-3-[(4,4-difluorocyclohexyl)methyl]-2-(trifluoromethyl)imidazo[1,2-a]pyridine-7-carboxamide}acetate]	≤ 100 nM	–
Cc1cc(C(O)c2nc3ccccc3[nH]2)cc2nc(C(F)(F)F)c(CC3CCC(F)(F)CC3)n12 (centres unmarked) [Compound 112, (1H-Benzo[d]imidazol-2-yl){3-[(4,4-difluorocyclohexyl)methyl]-5-methyl-2-(trifluoromethyl)imidazo[1,2-a]pyridin-7-yl}methanol]	–	≤ 100 nM
CC(C)(C)OC(=O)NCCNC(=O)c1cc(Cl)n2c(CC3CCC(F)(F)CC3)c(C(F)(F)F)nc2c1 [Compound 115, tert-Butyl 2-{5-chloro-3-[(4,4-difluorocyclohexyl)methyl]-2-(trifluoromethyl)imidazo[1,2-a]pyridine-7-carboxamide}ethylcarbamate]	≤ 100 nM	–
Cc1cc(C(O)c2nc3ccccc3n2C)cc2nc(C(F)(F)F)c(CC3CCC(F)(F)CC3)n12 (centres unmarked) [Compound 120, {3-[(4,4-Difluorocyclohexyl)methyl]-5-methyl-2-(trifluoromethyl)imidazo[1,2-a]pyridin-7-yl}(1-methyl-1H-benzo[d]imidazol-2-yl)methanol]	–	≤ 100 nM
CCOC(=O)C(C)NC(=O)c1cc(Cl)n2c(CC3CCC(F)(F)CC3)c(C(F)(F)F)nc2c1 (centres unmarked) [Compound 123, Ethyl 2-{5-chloro-3-[(4,4-difluorocyclohexyl)methyl]-2-(trifluoromethyl)imidazo[1,2-a]pyridine-7-carboxamide}propanoate]	≤ 100 nM	–
CCOC(=O)C(=O)CNC(=O)c1cc(C)n2c(CC3CCC(F)(F)CC3)c(C(F)(F)F)nc2c1 [Compound 124, Ethyl 3-{3-[(4,4-difluorocyclohexyl)methyl]-5-methyl-2-(trifluoromethyl)imidazo[1,2-a]pyridine-7-carboxamide}-2-oxopropanoate]	≤ 100 nM	–
O=C(NCC1(O)CC1)c1cc(Cl)n2c(CC3CCC(F)(F)CC3)c(C(F)(F)F)nc2c1 [Compound 125, 5-Chloro-3-[(4,4-difluorocyclohexyl)methyl]-N-[(1-hydroxycyclopropyl)methyl]-2-(trifluoromethyl)imidazo[1,2-a]pyridine-7-carboxamide]	≤ 100 nM	–

SMILES	IC50	IC50 [1]
Cc1cc(C(=O)NC2CCC3(CC2)COC3)cc2nc(C(F)(F)F)c(CC3CCC(F)(F)CC3)n12 [Compound 126, 3-[(4,4-Difluorocyclohexyl)methyl]-5-methyl-N-(2-oxaspiro[3.5]nonan-7-yl)-2-(trifluoromethyl)imidazo[1,2-a]pyridine-7-carboxamide]	–	≤ 100 nM
CC(F)(F)c1nc2cc(C(=O)NC3CCC4(CC3)COC4)c(Cl)cn2c1CC1CCC(F)(F)CC1 [Compound 127, 6-Chloro-3-[(4,4-difluorocyclohexyl)methyl]-2-(1,1-difluoroethyl)-N-(2-oxaspiro[3.5]nonan-7-yl)imidazo[1,2-a]pyridine-7-carboxamide]	≤ 100 nM	–
CC(NC(=O)c1cc(Cl)n2c(CC3CCC(F)(F)CC3)c(C(F)(F)F)nc2c1)C(=O)NC1CCOCC1 (centres unmarked) [Compound 128, 5-Chloro-3-[(4,4-difluorocyclohexyl)methyl]-N-[1-oxo-1-(tetrahydro-2H-pyran-4-ylamino)propan-2-yl]-2-(trifluoromethyl)imidazo[1,2-a]pyridine-7-carboxamide]	≤ 100 nM	–
O=C(CNC(=O)c1cc(Cl)n2c(CC3CCC(F)(F)CC3)c(C(F)(F)F)nc2c1)NC1CCOC1 (centres unmarked) [Compound 131, 5-Chloro-3-[(4,4-difluorocyclohexyl)methyl]-N-[2-oxo-2-(tetrahydrofuran-3-ylamino)ethyl]-2-(trifluoromethyl)imidazo[1,2-a]pyridine-7-carboxamide]	≤ 100 nM	–
COc1c(C(=O)NC2CCOCC2)cc(C)n2c(CC3CCC(F)(F)CC3)c(C(F)(F)F)nc12 [Compound 133, 3-[(4,4-Difluorocyclohexyl)methyl]-8-methoxy-5-methyl-N-(tetrahydro-2H-pyran-4-yl)-2-(trifluoromethyl)imidazo[1,2-a]pyridine-7-carboxamide]	≤ 100 nM	–
CCOC(=O)C1(NC(=O)c2cc(Cl)n3c(CC4CCC(F)(F)CC4)c(C(F)(F)F)nc3c2)CC1 [Compound 135, Ethyl 1-{5-chloro-3-[(4,4-difluorocyclohexyl)methyl]-2-(trifluoromethyl)imidazo[1,2-a]pyridine-7-carboxamide}cyclopropanecarboxylate]	≤ 100 nM	–
Cc1cc(C(=O)NC2CC3(COC3)C2)cc2nc(C(C)(F)F)c(CC3CCC(F)(F)CC3)n12 [Compound 136, 3-[(4,4-Difluorocyclohexyl)methyl]-2-(1,1-difluoroethyl)-5-methyl-N-(2-oxaspiro[3.3]heptan-6-yl)imidazo[1,2-a]pyridine-7-carboxamide]	≤ 100 nM	–
Cc1cc(C(=O)NC2CC3(COC3)C2)cc2nc(C(C)(C)C)c(CC3CCC(F)(F)CC3)n12 [Compound 137, 2-tert-Butyl-3-[(4,4-difluorocyclohexyl)methyl]-5-methyl-N-(2-oxaspiro[3.3]heptan-6-yl)imidazo[1,2-a]pyridine-7-carboxamide]	≤ 100 nM	–
Cc1cc(NC(=O)c2cc(C#N)n3c(CC4CCC(F)(F)CC4)c(C(F)(F)F)nc3c2)on1 [Compound 138, 5-Cyano-3-[(4,4-difluorocyclohexyl)methyl]-N-(3-methylisoxazol-5-yl)-2-(trifluoromethyl)imidazo[1,2-a]pyridine-7-carboxamide]	–	≤ 100 nM
CCOC(=O)CNC(=O)c1cc(C#N)n2c(CC3CCC(F)(F)CC3)c(C(F)(F)F)nc2c1 [Compound 139, Ethyl 2-{5-cyano-3-[(4,4-difluorocyclohexyl)methyl]-2-(trifluoromethyl)imidazo[1,2-a]pyridine-7-carboxamide}acetate]	≤ 100 nM	–
N#Cc1cc(C(=O)NC2CCOC2=O)cc2nc(C(F)(F)F)c(CC3CCC(F)(F)CC3)n12 (centres unmarked) [Compound 140, 5-Cyano-3-[(4,4-difluorocyclohexyl)methyl]-N-(2-oxotetrahydrofuran-3-yl)-2-(trifluoromethyl)imidazo[1,2-a]pyridine-7-carboxamide]	≤ 100 nM	–
COC1(CNC(=O)c2cc(C#N)n3c(CC4CCC(F)(F)CC4)c(C(F)(F)F)nc3c2)CCOCC1 [Compound 141, 5-Cyano-3-[(4,4-difluorocyclohexyl)methyl]-N-[(4-methoxytetrahydro-2H-pyran-4-yl)methyl]-2-(trifluoromethyl)imidazo[1,2-a]pyridine-7-carboxamide]	≤ 100 nM	–
O=C(NNC(=O)C1CC1)c1cc(Cl)n2c(CC3CCC(F)(F)CC3)c(C(F)(F)F)nc2c1 [Compound 142, 5-Chloro-N′-(cyclopropanecarbonyl)-3-[(4,4-difluorocyclohexyl)methyl]-2-(trifluoromethyl)imidazo[1,2-a]pyridine-7-carbohydrazide]	≤ 100 nM	–
O=C(CC1CCOCC1)NNC(=O)c1cc(Cl)n2c(CC3CCC(F)(F)CC3)c(C(F)(F)F)nc2c1 [Compound 143, 5-Chloro-3-[(4,4-difluorocyclohexyl)methyl]-N′-[2-(tetrahydro-2H-pyran-4-yl)acetyl]-2-(trifluoromethyl)imidazo[1,2-a]pyridine-7-carbohydrazide]	≤ 100 nM	–
CCCCc1c(C(C)C)nc2cc(C(=O)Nc3ccccc3)ccn12 [Compound 144, 3-Butyl-2-isopropyl-N-phenylimidazo[1,2-a]pyridine-7-carboxamide]	≤ 100 nM	–
Cc1cc(C(=O)NC2CC3(COC3)C2)cc2nc(C(C)C)c(CC3CCC(F)(F)CC3)n12 [Compound 145, 3-[(4,4-Difluorocyclohexyl)methyl]-2-isopropyl-5-methyl-N-(2-oxaspiro[3.3]heptan-6-yl)imidazo[1,2-a]pyridine-7-carboxamide]	≤ 100 nM	–
